Drawing on patent US11324757B2, “Pharmaceutical composition for treatment of increased intraocular pressure” (NOVALIQ GMBH, priority 2010, dated 2022), this text covers solubility in water and solubility for one compound.

For series [1] the following is noted: descriptive term; cited from earlier work.
Series [2] is described as follows: Solubility of latanoprost in F4H5/ethanol by HPLC. It counts as physicochemical. Particulars: F4H5/ethanol mixture (99:1 by weight), organic solvent or mixture, thermodynamic from solid; in mixture of F4H5 and ethanol (ratio 99:1 by weight). As for the experimental part: In a separate experiment, the solubility of latanoprost in a mixture of F4H5 and ethanol (ratio 99:1 by weight) was determined by HPLC according to Ph.Eur.2.2.29 after rotation evaporation of the solvent methyl acetate in vacuo, addition of the solvent under examination of the residue and determination of the dissolved amount.

Take `CC(C)OC(=O)CCC/C=C\C[C@@H]1[C@@H](CC[C@@H](O)CCc2ccccc2)[C@H](O)C[C@@H]1O` [latanoprost, isopropyl-(Z)-7[(1R,2R,3R,5S)3,5-dihydroxy-2-[(3R)-3-hydroxy-5-phenylpentyl]cyclopentyl]-5-heptenoate]: in series [1], the solubility in water result was “practically insoluble”. For the same compound, the solubility (commonly how much of the substance goes into solution per volume) in series [2] is 57 µg/mL.
